{"source": "patent US8889411B2", "about": "“Modulation of stem and progenitor cell differentiation, assays, and uses thereof” (Anthrogenesis Corporation, priority 2002, dated 2014)", "key": {"[1]": {"system": "Cord blood CD34+ hematopoietic progenitor cells", "experiment": "Colony forming unit (CFU) generation from cord blood CD34+ cells", "assay_type": "cell-based, human", "conditions": "IL-3, G-CSF, kit-ligand, vs DMSO", "experimental": "FIG. 1. Bar graph indicating results of culturing cord blood CD34+ cells in the presence of Thalidomide (THD), ACTIMID™, and REVIMID™ at concentrations of 1 μg/ml and 10 μg/ml. An equal volume of DMSO was used as a negative control. Hematopoietic colonies of burst forming units-erythroid (BFU-E), colony forming units-erythroid (CFU-E), colony forming units-granulocyte macrophage (CFU-GM) and total numbers of colonies (CFU-Total) were scored under the light microscope at day 14 of culture. Y-axis: numbers of colonies. See Section 6.1 for details.\nCord blood CD34+ hematopoietic progenitor cells were plated in 96 well cultivation dishes at a density of 1000 cells per well in IMDM supplemented with 20% fetal calf serum and cytokines (IL-3, G-CSF and kit-ligand (R&D Systems, Inc.) The cells were exposed to Thalidomide (Thal), ACTIMID™ and REVIMID™, or DMSO (a control compound), and allowed to culture for 6 days. […] After culturing, cells were stained and sorted with a fluorescence activated. cell sorter (FACS). 400 μL of stained cells were harvested and diluted to 1.0 ml with 1% fetal calf serum in phosphate buffered saline (PBS). Cells were counted to determine the effect of modulation of stem cell differentiation."}, "[2]": {"system": "Human Cord Blood CD34+ Cells", "experiment": "FACS analysis of proliferation and differentiation of cord blood CD34+ cells cultured with IL3, G-CSF and Kit-ligand", "assay_type": "cell-based", "conditions": "for CD11b+ Cell Population / CD34+CD38+ Cell Population / CD34+CD38− Cell Population: 7 days", "experimental": "CB CD34+ cells were initiated at 4×10^4 cells/ml in a 24-well plate in 20% FCS IMDM (fetal calf serum/Iscove's Modified Dulbecco's Medium) supplemented with cytokines (1 L3, GCSF and Kit-ligand) (R&D Systems, Inc.). Thalidomide (Thal), ACTIMID™ or REVIMID™ were included in the culture at three different concentrations: 5 μg/ml, 1 μg/ml and 0.3 μg/ml. The same volumes of DMSO were used as controls. A negative control without, any compound was also used (indicated by “none” in FIGS. 3-7). Cells were cultured at 37° C. and 5% CO2 in a humidified incubator for 7 days. Cells were then harvested from each well.\nThe total cell number from each well was determined by counting in a CELL-DYN® 1700 (Abbott Diagnostics) and the expression of CXCR4, CD45, CD34, CD38, CD 1 lb and Gly-A expression was analyzed by FACS (fluorescence-activated cell sorting) staining (FIGS. 3-7).\nCB cells from two different donors (CB2276 and CB2417) were cultured, assayed and analyzed separately (Table 1)."}, "[3]": {"system": "Human Cord Blood MNC Cells", "experiment": "FACS analysis of cryopreserved and thawed cord blood MNCs after 1 week of culture with cytokines", "assay_type": "cell-based", "conditions": "5 μg in 1.7 μl DMSO, average +/− SD of three wells", "experimental": "Cord blood MNCs that had been cryopreserved and thawed using standard methods were isolated by standard Ficoll separation method and cultured in 24 well-plate at 0.5×10^6 cells/ml in 20% FCS-IMDM with cytokines (1L6, KL and G-CSF 10 ng/ml each) in triplicates. The experimental groups were None (cytokines only), DMSO (1.7 μl), ACTIMID™ (5.0 μg in 1.7 μl DMSO), REVIMID™ (5 μg in 1.7 μl DMSO). The cultured cells were harvested and analyzed by FACS staining after 1 week of culture. The data are expressed as an average +/− SD from three independent wells."}, "[4]": {"system": "Purified human cord blood CD34+ cells", "experiment": "Monocyte production: CD34/CD14 staining of cord blood CD34+ cells cultured 14 days with cytokines", "assay_type": "cell-based", "experimental": "Purified human cord blood CD34+ cells (greater than 90% CD34+) were cultured in 20% FCS IMDM medium supplemented with cytokines (IL3, IL6, G-CSF, KL and Epo) at 4×10^4 cells/ml for 14 days at 37° C. in a humidified 5% CO2 incubator. The experimental groups consisted of a group in which (i) no DMSO or chemical compounds were added (“None”), (ii) DMSO only, (iii) Thalidomide dissolved in DMSO, (iv) ACTIMID™ dissolved in DMSO, and (v) REVIMID™ dissolved in DMSO. Aliquots of cells were harvested and stained with CD34-PE conjugated monoclonal antibody and CD14-FITC conjugated monoclonal antibody."}, "[5]": {"system": "human cord blood CD45+ cells", "experiment": "Flow cytograms of cord blood CD45+ cells cultured 14 days with IL3, IL6, G-CSF, Epo and KL", "assay_type": "cell-based", "conditions": "5 μg/ml, FIG. 10", "experimental": "FIGS. 9(A-F). Flow cytograms. […] Cord blood CD45+ cells were cultured for 14 days with cytokines IL3, IL6, G-CSF, Epo and KL. Percentages indicated on each cytogram indicate the percentage of the cell population expressing a particular combination of markers. A. Control, immunoglobulin (Ig). B. Control, no compound added. C. DMSO (5 μg/ml). D. Thal (5 μg/ml). E. ACTIMID™ (5 μg/ml). F. REVIMID™ (5 μg/ml). X-axis: relative intensity of CD38 (FL1-H) staining. Y-axis: relative intensity of CD19 (FL2-H) staining. See Section 6.3 for details.\nFIGS. 10(A-F). Flow cytograms. […] Cord blood CD45+ cells were cultured for 14 days with cytokines IL3, IL6, G-CSF, Epo and KL. Percentages indicated on each cytogram indicate the percentage of the cell population expressing a particular combination of markers. A. Control, immunoglobulin (Ig). B. Control, no compound added. C. DMSO (5 μg/ml). D. Thal (5 μg/ml). E. ACTIMID™ (5 μg/ml). F. REVIMID™ (5 μg/ml). X-axis: relative intensity of CXCR5 (FL1-H) staining. Y-axis: relative intensity of CD34 (FL2-H) staining. See Section 6.3 for details."}}, "data": [{"smiles": "Nc1cccc2c1CN(C1CCC(=O)NC1=O)C2=O", "note": "(stereo not drawn) [REVIMID™, 3-(4-amino-1-oxo-1,3-dihydro-isoindol-2-yl)-piperidine-2,6-dione]", "values": [{"measurement": "generation of erythropoietic colonies (BFU-E and CFU-E)", "setting": "[1]", "result": "suppress"}, {"measurement": "generation of leukocyte and platelet forming colonies (CFU-GM)", "setting": "[1]", "result": "augmenting"}, {"measurement": "total colony forming unit (CFU-Total) production", "setting": "[1]", "result": "enhancing"}, {"measurement": "expression of CXCR4", "setting": "[2]; FACS analysis of surface proteins", "result": "inhibitory effect"}, {"measurement": "yield of cells", "setting": "[2]; IL-3, KL and G-CSF, compared with the DMSO control", "result": "slightly higher number of cells"}, {"measurement": "effect on the proliferation of CD34+ cells", "setting": "[2]; IL-3, KL and G-CSF, compared with the negative control (none)", "result": "do not have a significant effect"}, {"measurement": "CD11b+ Cell Population", "setting": "[2]; donor CB2276, 0.3 μg/ml", "result": 13.3, "unit": "%"}, {"measurement": "CD34+CD38+ Cell Population", "setting": "[2]; donor CB2276, 0.3 μg/ml", "result": 1.7}, {"measurement": "CD34+CD38− Cell Population", "setting": "[2]; donor CB2276, 0.3 μg/ml", "result": 9.8}, {"measurement": "CD11b+ Cell Population", "setting": "[2]; donor CB2276, 1 μg/ml", "result": 8.6, "unit": "%"}, {"measurement": "CD34+CD38+ Cell Population", "setting": "[2]; donor CB2276, 1 μg/ml", "result": 1}, {"measurement": "CD34+CD38− Cell Population", "setting": "[2]; donor CB2276, 1 μg/ml", "result": 10.3}, {"measurement": "CD11b+ Cell Population", "setting": "[2]; donor CB2276, 5 μg/ml", "result": 4.8, "unit": "%"}, {"measurement": "CD34+CD38+ Cell Population", "setting": "[2]; donor CB2276, 5 μg/ml", "result": 0.3}, {"measurement": "CD34+CD38− Cell Population", "setting": "[2]; donor CB2276, 5 μg/ml", "result": 4.0}, {"measurement": "CD11b+ Cell Population", "setting": "[2]; donor CB2417, 0.3 μg/ml", "result": 11.2, "unit": "%"}, {"measurement": "CD34+CD38+ Cell Population", "setting": "[2]; donor CB2417, 0.3 μg/ml", "result": 0.9}, {"measurement": "CD34+CD38− Cell Population", "setting": "[2]; donor CB2417, 0.3 μg/ml", "result": 3.4}, {"measurement": "CD11b+ Cell Population", "setting": "[2]; donor CB2417, 1 μg/ml", "result": 8.2, "unit": "%"}, {"measurement": "CD34+CD38+ Cell Population", "setting": "[2]; donor CB2417, 1 μg/ml", "result": 0.6}, {"measurement": "CD34+CD38− Cell Population", "setting": "[2]; donor CB2417, 1 μg/ml", "result": 3.8}, {"measurement": "CD11b+ Cell Population", "setting": "[2]; donor CB2417, 5 μg/ml", "result": 5.5, "unit": "%"}, {"measurement": "CD34+CD38+ Cell Population", "setting": "[2]; donor CB2417, 5 μg/ml", "result": 0.3}, {"measurement": "CD34+CD38− Cell Population", "setting": "[2]; donor CB2417, 5 μg/ml", "result": 4.2}, {"measurement": "CD38 status of the majority of CD34+ and CD34− cells", "setting": "[2]; treated cell populations", "result": "CD38−"}, {"measurement": "level of CD11b expression by mean immunofluorescence (MIF)", "setting": "[2]; treated cells", "result": "decreased"}, {"measurement": "CD34(%)", "setting": "[3]", "result": "2.34 +/− 0.22%"}, {"measurement": "CD34+CD38−(%)", "setting": "[3]", "result": "0.80 +/− 0.29%"}, {"measurement": "CXCR4+CD45+(%)", "setting": "[3]", "result": "3.6 +/− 0.9%"}, {"measurement": "CXCR4+CD45−(%)", "setting": "[3]", "result": "3.28 +/− 0.89%"}, {"measurement": "Total CD34+ cells", "setting": "[3]", "result": "7166 +/− 802"}, {"measurement": "Total cells (1 × 10^6)", "setting": "[3]", "result": "0.30 +/− 0 1 × 10^6"}, {"measurement": "percentage of monocyte lineage cells", "setting": "[4]; 5 μg/ml, compared to control, FIG. 13", "result": "increase"}, {"measurement": "percentage of CD34+ cells of the total cells", "setting": "[4]; 14 days, IL3, IL6, G-CSF, KL and Epo, compound dissolved in DMSO", "result": 7.1, "unit": "%"}, {"measurement": "production of monocytes (CD14+ cells)", "setting": "[4]; 14 days, relative to DMSO-treated group", "result": "overcome"}, {"measurement": "repression of CXCR5 produced by exposure to DMSO", "setting": "[5]", "result": "overcomes the repression"}]}]}
